Data from the supplement of paper PMC10307832.

Legend:
Assay in all cases: relative viability (nuclei count vs DMSO), 5 days (fraction); higher = more cells survive
[1] = compound: CS(=O)(=O)c1ccc(-c2cnc(N)c(C(=O)Nc3ccccc3)n2)cc1 [VE-821] + CCNC(=O)c1noc(-c2cc(C(C)C)c(O)cc2O)c1-c1ccc(CN2CCOCC2)cc1 [Luminespib] (partner 0.01 µM)
How it was run: (§1)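 A single step with final 0.05% Triton X-100, 1% formaldehyde and 1 ug/ml Hoechst fixed the cells and stained nuclei 5 days after treatment. Lung cancer cell lines in 1536-well plates had been treated by pin tool the day after seeding with one drug alone or a fixed anchor-drug dose plus five library-drug doses (not always all listed) in √10 steps, and nuclei were counted on 4× images. Relative viability is the ratio of nuclei in treated wells to nuclei in vehicle wells, taken as the median of duplicate plates.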

[2] = compound: CS(=O)(=O)c1ccc(C(=O)Nc2ccc(Cl)c(-c3ccccn3)c2)c(Cl)c1 [Vismodegib] + O=C(CCCCCCC(=O)Nc1ccccc1)NO [Vorinostat] (partner 1 µM)
How it was run: as §1

[3] = compound: N#CC[C@H](C1CCCC1)n1cc(-c2ncnc3[nH]ccc23)cn1 [Ruxolitinib] + CS(=O)(=O)N1CCN(Cc2cc3nc(-c4cccc5[nH]ncc45)nc(N4CCOCC4)c3s2)CC1 [Pictilisib] (partner 1 µM)
How it was run: as §1

[4] = compound: N#CC[C@H](C1CCCC1)n1cc(-c2ncnc3[nH]ccc23)cn1 [Ruxolitinib] + O=C(CCCCCCC(=O)Nc1ccccc1)NO [Vorinostat] (partner 1 µM)
How it was run: as §1

Row | Cell Line | relative viability ([1]; first compound 0.08 µM) | relative viability ([1]; first compound 0.253 µM) | relative viability ([1]; first compound 0.8 µM) | relative viability ([1]; first compound 2.53 µM) | relative viability ([1]; first compound 8 µM) | relative viability ([2]; first compound 0.08 µM) | relative viability ([2]; first compound 0.253 µM) | relative viability ([2]; first compound 0.8 µM) | relative viability ([2]; first compound 2.53 µM) | relative viability ([2]; first compound 8 µM) | relative viability ([3]; first compound 0.08 µM) | relative viability ([3]; first compound 0.253 µM) | relative viability ([3]; first compound 0.8 µM) | relative viability ([3]; first compound 2.53 µM) | relative viability ([3]; first compound 8 µM) | relative viability ([4]; first compound 0.08 µM) | relative viability ([4]; first compound 0.253 µM) | relative viability ([4]; first compound 0.8 µM) | relative viability ([4]; first compound 2.53 µM) | relative viability ([4]; first compound 8 µM)
1 | LCLC-103H | 1.1 | 0.925 | 0.898 | 0.947 | 0.718 | 0.74 | 0.733 | 0.613 | 0.749 | 0.539 | 0.58 | 0.597 | 0.592 | 0.524 | 0.597 | 0.89 | 0.795 | 0.806 | 0.735 | 0.675
2 | LK-2 | 0.18 | 0.182 | 0.149 | 0.205 | 0.181 | 0.246 | 0.31 | 0.294 | 0.286 | 0.239 |  | 0.595 | 0.61 | 0.741 | 0.673 | 0.265 | 0.26 | 0.254 | 0.287 | 0.209
3 | LOU-NH91 | 0.431 | 0.366 | 0.319 | 0.345 | 0.279 | 0.884 | 0.899 | 0.793 | 0.845 | 0.885 | 0.477 | 0.493 | 0.524 | 0.514 | 0.56 | 0.864 | 0.886 | 0.952 | 0.897 | 0.917
4 | LU99A | 0.274 | 0.261 | 0.241 | 0.199 | 0.194 | 0.409 | 0.469 | 0.498 | 0.469 | 0.509 | 0.321 | 0.315 | 0.401 | 0.339 | 0.316 | 0.537 | 0.482 | 0.542 | 0.416 | 0.426
5 | LXF-289 | 0.766 | 0.671 | 0.52 | 0.82 | 0.616 | 0.787 | 0.724 | 0.846 | 0.731 | 0.629 | 0.785 | 0.797 | 0.804 | 0.739 | 0.498 | 0.744 | 0.818 | 0.793 | 0.714 | 0.705
6 | NCI-H23 | 0.202 | 0.223 | 0.214 | 0.236 | 0.213 | 0.622 | 0.568 | 0.496 | 0.434 | 0.571 | 0.519 | 0.474 | 0.603 | 0.439 | 0.415 | 0.668 | 0.628 | 0.763 | 0.642 | 0.43
7 | NCI-H322M | 0.958 | 0.87 | 0.632 | 0.4 | 0.266 | 0.925 | 0.842 | 0.848 | 0.851 | 0.855 | 0.4 | 0.604 | 0.491 | 0.611 | 0.665 | 0.951 | 1.01 | 1.05 | 1.3 | 1.4
8 | NCI-H358 | 0.62 | 0.307 | 0.334 | 0.537 | 1.49 | 0.831 | 0.677 | 0.696 | 0.68 | 0.728 | 0.413 | 0.343 | 0.342 | 0.268 | 0.265 | 0.624 | 0.645 | 0.673 | 0.509 | 0.417
9 | NCI-H441 | 0.289 | 0.386 | 0.602 | 0.307 | 0.363 | 0.875 |  | 0.552 | 0.678 | 0.839 | 0.44 | 0.497 | 0.533 | 0.445 | 0.39 | 0.648 | 0.571 | 0.907 | 0.689 | 0.747
10 | NCI-H460 | 0.0302 | 0.0482 | 0.0362 | 0.0342 | 0.0308 | 0.71 | 0.707 | 0.711 | 0.691 | 0.75 | 0.179 | 0.309 | 0.307 | 0.386 | 0.114 | 0.847 | 0.774 | 0.819 | 0.599 | 0.516
11 | NCI-H520 | 0.218 | 0.24 | 0.191 | 0.276 | 0.227 | 0.71 | 0.697 | 0.747 | 0.553 | 0.701 |  | 0.258 | 0.236 | 0.251 | 0.34 | 0.758 | 0.858 | 0.752 | 0.844 | 0.654
12 | NCI-H596 | 0.978 | 1.09 | 1 | 1.03 | 0.738 | 0.682 | 0.65 | 0.609 | 0.486 | 0.642 | 0.379 | 0.339 | 0.387 | 0.418 | 0.386 | 0.713 | 0.638 | 0.743 | 0.589 | 0.454
13 | NCI-H647 | 0.257 | 0.344 | 0.168 | 0.131 | 0.158 | 0.586 | 0.424 | 0.63 | 0.511 | 0.654 |  | 0.358 | 0.449 | 0.362 | 0.514 | 0.694 | 0.729 | 0.683 | 0.538 | 0.286
14 | NCI-H650 | 0.986 | 0.94 | 0.662 | 0.883 | 0.798 | 0.434 | 0.413 | 0.353 | 0.392 | 0.488 |  | 0.881 | 1.21 | 0.699 | 0.649 | 0.532 | 0.423 | 0.406 | 0.44 | 0.429
15 | NCI-H661 | 0.88 | 0.944 | 0.958 | 0.914 | 0.803 | 0.785 | 0.768 | 0.841 | 0.737 | 0.763 | 0.41 | 0.322 | 0.379 |  | 0.465 | 0.833 | 0.822 | 0.839 | 0.792 | 0.802
16 | NCI-H727 | 0.317 | 0.342 | 0.368 | 0.346 | 0.353 | 1.21 | 1.32 | 1.1 | 1.18 | 1.2 | 0.427 | 0.384 | 0.6 | 0.309 | 0.725 | 1.2 | 1.19 | 1.4 | 1.12 | 1.49
17 | NCI-H838 | 0.275 | 0.225 | 0.224 | 0.266 | 0.158 | 0.696 | 0.715 | 0.727 | 0.743 | 0.733 | 0.464 | 0.433 | 0.402 | 0.24 | 0.278 | 0.734 | 0.669 | 0.685 | 0.535 | 0.349
